For assay [1], the target named is T1, D(2) dopamine receptor (Rattus norvegicus, UniProt P61169). Nature of the assay: In vitro inhibition of [3H]spiperone binding to Dopamine D2 receptor in rat striatum. The format is tissue-based.
The test system of assay [2] is Rattus norvegicus. Nature of the assay: Effect on striatal DOPA synthesis at 10 mg/kg dose after GBL intraperitoneal dose of 750 mg/kg in rat corpus striatum. The assay is classed as functional.
In assay [3] the test system is Mus musculus. Nature of the assay: Tested for inhibition of mouse explanatory locomotory activity; value ranges from […]-[…] mg/Kg. The assay is classed as functional.
In assay [4] the test system is Mus musculus. Nature of the assay: Tested for inhibition of mouse exploratory locomotory activity (LMA); value ranges from 9.2-16 mg/Kg. The assay is classed as functional.
The test system of assay [5] is Rattus norvegicus. Nature of the assay: Tested for inhibition of rat exploratory locomotory activity (LMA); value ranges from 12.5-24.7 mg/Kg. The format is functional.
The species named for assay [6] is Mus musculus. Nature of the assay: Tested for inhibition of mouse exploratory locomotory activity (LMA). The format is functional.
Assay [7] is filed under the species Rattus norvegicus. Nature of the assay: Tested for inhibition of rat exploratory locomotory activity (LMA). The assay is classed as functional.
Assay [8] concerns Mus musculus. Nature of the assay: Tested for inhibition of mouse exploratory locomotory activity (LMA); value ranges from 0.8-1.6 mg/Kg. The assay is classed as functional.
The test system of assay [9] is Mus musculus. Nature of the assay: Tested for inhibition of mouse exploratory locomotory activity (LMA); value ranges from […]-[…] mg/Kg. The format is functional.
In assay [10] the test system is Rattus norvegicus. Nature of the assay: Tested for inhibition of rat exploratory locomotory activity (LMA); value ranges from […]-[…] mg/Kg; value ranges from […]-[…] mg/Kg. The assay is classed as functional.
Assay [11] has as its system Rattus norvegicus. Nature of the assay: Compound was tested for the decrease of DA neuron firing rate in rats at 0.25 mg/Kg ip dose. The assay is classed as functional. The arrangement: scale not given: the % may be the effect or the level left.
The species named for assay [12] is Rattus norvegicus. Nature of the assay: animal or person. Conditions: ip.
The test system of assay [13] is Saimiri sciureus (squirrel monkey). Nature of the assay: Tested for inhibition of conditioned avoidance in squirrel monkeys; stim indicates stimulation (increase in response rate) at 0.156 and 0.312 mgkg sc.
In assay [14] the test system is Rattus norvegicus. Nature of the assay: Tested for reversal of DOPA accumulation in rat striatum after administration of compound at 10 mg/Kg dose for 60 min and GBL 750 mg/Kg ip; value ranges from 0.14-0.59. The format is functional.
Assay [15] relates to Mus musculus. Nature of the assay: Tested for the inhibition of locomotor activity in mice intraperitoneally; value ranges from 0.14-0.9 mg/Kg. The assay is classed as functional. The following applies: ip.
Assay [16] has as its system Rattus norvegicus. Nature of the assay: Tested for inhibition of rat exploratory locomotory activity (LMA); value ranges from 3.2-10.4 mg/Kg. The format is functional.
In assay [17] the test system is Rattus norvegicus. Nature of the assay: Tested for the inhibition of locomotor activity in rats orally; value ranges from 0.21-0.3 mg/Kg. Conditions: po.
Assay [18] is filed under the species Mus musculus. Nature of the assay: animal or person. The following applies: ip.
A short description of assay [19]: Tested for inhibition of conditioned avoidance in squirrel monkeys; value ranges from 0.4-0.6 mg/Kg. Conditions: Saimiri.
The target in assay [20] is T1, D(2) dopamine receptor.
Description: Tested for binding affinity towards rat striatal D2 receptor using [3H]spiperone as radioligand
Assay [21] relates to Rattus norvegicus. Nature of the assay: Compound was tested for the decrease of DA neuron firing rate in rats at 2.5 mg/Kg ip dose. The format is functional.
Assay [22] relates to Rattus norvegicus. Nature of the assay: Tested for reversal of DOPA accumulation in rat mesolimbic after administration of compound at 10 mg/Kg dose for 60 min and GBL 750 mg/Kg ip; value ranges from 0.19-0.47. The assay is classed as functional.
The target in a further assay is D(1A) dopamine receptor (Rattus norvegicus, UniProt P18901). Nature of the assay: Tested for binding affinity towards rat striatal dopamine receptor D1 using [3H]-SCH- 23390 as radioligand.
The subject of assay [23] is Rattus norvegicus. Nature of the assay: Tested for inhibition of rat exploratory locomotory activity (LMA); value ranges from […]-[…] mg/Kg. The assay is classed as functional.
The next assay deals with T2, D(4) dopamine receptor (Homo sapiens, UniProt P21917).
T2 sequence (P21917 whole entry): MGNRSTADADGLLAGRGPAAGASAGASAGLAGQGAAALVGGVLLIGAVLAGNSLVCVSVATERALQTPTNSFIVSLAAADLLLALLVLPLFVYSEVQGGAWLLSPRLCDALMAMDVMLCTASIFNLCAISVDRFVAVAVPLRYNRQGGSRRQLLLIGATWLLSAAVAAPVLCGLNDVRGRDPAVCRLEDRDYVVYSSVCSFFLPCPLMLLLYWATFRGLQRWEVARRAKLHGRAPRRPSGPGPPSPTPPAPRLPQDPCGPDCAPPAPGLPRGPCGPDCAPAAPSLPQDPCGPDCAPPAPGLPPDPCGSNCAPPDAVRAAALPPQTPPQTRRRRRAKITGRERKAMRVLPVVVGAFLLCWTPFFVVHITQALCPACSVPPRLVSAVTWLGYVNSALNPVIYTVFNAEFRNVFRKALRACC
Nature of the assay: Tested for binding affinity towards human Dopamine receptor D4.2 using [3H]spiperone as radioligand.

The target in the next assay is D(3) dopamine receptor (Homo sapiens, UniProt P35462).
Assay [24] concerns the target T1, D(2) dopamine receptor. Nature of the assay: Tested for binding affinity towards rat striatal D2 receptor using [3H]NPA as radioligand.
Assay [25] has as its system Mus musculus. Nature of the assay: Tested for the inhibition of locomotor activity in mice intraperitoneally; value ranges from 0.9-1.8 mg/Kg. The assay is classed as functional. The following applies: ip.
Assay [26] relates to Rattus norvegicus. Nature of the assay: Tested for reversal of DOPA accumulation in rat striatum after administration of compound at 10 mg/Kg dose for 60 min and GBL 750 mg/Kg ip; value ranges from 2.05-4.46. The format is functional.
Assay [27] is described as follows: Tested for inhibition of conditioned avoidance in squirrel monkeys; value ranges from 0.4-0.7 mg/Kg. The assay is classed as functional.
Assay [28] has as its target D(2) dopamine receptor (Homo sapiens, UniProt P14416).
Description: Tested for binding affinity towards human D2L receptor using [3H]spiperone as radioligand
For assay [29], the system named is Rattus norvegicus. Nature of the assay: Tested for the inhibition of locomotor activity in rats intraperitoneally; value ranges from […]-[…] mg/Kg. The format is functional. Conditions: ip.

These results are taken from ChEMBL document CHEMBL1127372, “The discovery and structure-activity relationships of 1,2,3,6-tetrahydro-4-phenyl-1-[(arylcyclohexenyl)alkyl]pyridines. Dopamine autoreceptor agonists and potential antipsychotic agents” (J Med Chem, 1994).

The source made the active and inactive calls. No cut-off for these calls is given here.

A word on the IC50: it is the concentration at which inhibition is half-maximal. The term ED50 denotes the midpoint of the dose-response relation. As usually defined, the Ki is a dissociation constant, usually derived from enzyme kinetics or from competition with a known ligand.

T1 sequence (P61169 whole entry): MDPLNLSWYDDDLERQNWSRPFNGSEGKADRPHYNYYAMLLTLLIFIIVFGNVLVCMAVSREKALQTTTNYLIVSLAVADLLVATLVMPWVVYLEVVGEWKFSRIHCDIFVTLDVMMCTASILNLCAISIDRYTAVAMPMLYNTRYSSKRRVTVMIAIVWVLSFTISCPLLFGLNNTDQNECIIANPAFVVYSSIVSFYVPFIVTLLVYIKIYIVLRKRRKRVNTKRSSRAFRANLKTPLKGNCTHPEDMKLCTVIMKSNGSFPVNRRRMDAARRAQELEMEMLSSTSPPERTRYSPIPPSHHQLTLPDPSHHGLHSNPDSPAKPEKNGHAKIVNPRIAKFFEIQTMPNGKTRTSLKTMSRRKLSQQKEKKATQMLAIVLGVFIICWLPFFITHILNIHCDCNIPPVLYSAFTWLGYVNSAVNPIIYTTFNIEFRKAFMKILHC
D(2) dopamine receptor (Homo sapiens, UniProt P14416), sequence (P14416 whole entry): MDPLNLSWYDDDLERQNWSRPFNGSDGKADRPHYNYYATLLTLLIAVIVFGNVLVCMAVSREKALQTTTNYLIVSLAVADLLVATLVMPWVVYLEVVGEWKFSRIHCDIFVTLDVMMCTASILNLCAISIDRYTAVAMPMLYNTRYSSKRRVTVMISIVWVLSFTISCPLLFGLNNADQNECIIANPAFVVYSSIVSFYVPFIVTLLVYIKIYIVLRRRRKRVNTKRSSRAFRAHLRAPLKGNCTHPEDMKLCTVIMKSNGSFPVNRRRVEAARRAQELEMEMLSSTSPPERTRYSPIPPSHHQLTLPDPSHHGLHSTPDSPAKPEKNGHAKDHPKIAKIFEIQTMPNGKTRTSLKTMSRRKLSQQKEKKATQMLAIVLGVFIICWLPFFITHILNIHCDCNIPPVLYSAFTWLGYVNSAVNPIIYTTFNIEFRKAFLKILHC
D(1A) dopamine receptor, sequence (P18901 whole entry): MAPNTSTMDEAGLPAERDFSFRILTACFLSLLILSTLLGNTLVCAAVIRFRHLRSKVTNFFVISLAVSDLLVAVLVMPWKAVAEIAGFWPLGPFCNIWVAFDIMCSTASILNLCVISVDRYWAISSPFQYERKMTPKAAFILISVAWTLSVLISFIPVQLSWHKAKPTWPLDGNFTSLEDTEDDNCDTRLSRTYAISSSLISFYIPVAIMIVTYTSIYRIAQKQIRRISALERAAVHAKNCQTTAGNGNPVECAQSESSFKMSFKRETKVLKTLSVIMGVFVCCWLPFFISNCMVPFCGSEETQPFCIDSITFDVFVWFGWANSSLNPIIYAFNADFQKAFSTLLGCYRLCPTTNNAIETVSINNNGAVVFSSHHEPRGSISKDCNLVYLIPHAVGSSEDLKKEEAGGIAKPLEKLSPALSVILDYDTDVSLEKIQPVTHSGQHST
D(3) dopamine receptor, sequence (P35462 whole entry): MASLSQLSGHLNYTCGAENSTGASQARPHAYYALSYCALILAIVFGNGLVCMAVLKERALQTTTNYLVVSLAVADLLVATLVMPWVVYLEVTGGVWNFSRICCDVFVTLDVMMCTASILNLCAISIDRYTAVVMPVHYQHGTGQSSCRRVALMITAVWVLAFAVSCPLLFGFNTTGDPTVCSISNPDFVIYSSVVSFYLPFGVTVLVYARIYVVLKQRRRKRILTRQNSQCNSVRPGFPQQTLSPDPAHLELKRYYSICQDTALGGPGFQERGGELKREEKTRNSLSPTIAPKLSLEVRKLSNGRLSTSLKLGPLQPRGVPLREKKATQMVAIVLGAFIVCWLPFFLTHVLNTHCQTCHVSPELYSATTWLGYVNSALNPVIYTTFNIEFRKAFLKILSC
Description for D(3) dopamine receptor: Tested for binding affinity towards human D3 receptor using [3H]spiperone as radioligand

For `COc1ccc(C2=CCC[C@@H](CN3CC=C(c4ccccc4)CC3)C2)cc1`, the IC50 at D(2) dopamine receptor [1] amounted to 100 nM. Further, the Effect in the assay with Rattus norvegicus [2] is -47%. Further, the ED50 in the assay on Mus musculus [3] came to 5.6 mg/kg.

Regarding `C1=C(c2ccccc2)CCN(CCC2CCC=C(c3ccccc3)C2)C1` (configuration not stated), in the assay on Rattus norvegicus [2], the Effect was -49%.

For the compound `FC(F)(F)c1ccc(C2=CCC[C@@H](CN3CC=C(c4ccccc4)CC3)C2)cc1`, the IC50 at D(2) dopamine receptor [1] was determined as 2550 nM.

The compound `C1=C(c2ccccc2)CC(CN2CC=C(c3cccs3)CC2)CC1` (configuration not stated) came in with an IC50 at D(2) dopamine receptor [1] of 170 nM.

Compound `C1=C(c2ccccc2)CCC(CN2CC=C(c3ccccc3)CC2)C1` (configuration not stated) registered an ED50 with Mus musculus [4] of 12.1 mg/kg. The IC50 at D(2) dopamine receptor [1] is 1000 nM. In addition, the Effect in the assay with Rattus norvegicus [2] is given as -32%.

As for `Fc1ccc(C2=CCC[C@@H](CN3CC=C(c4ccccc4)CC3)C2)cc1`, the IC50 on D(2) dopamine receptor [1] is 76 nM. Further, the Effect with Rattus norvegicus [2] is -74%. The compound further registered an ED50 in the assay on Rattus norvegicus [5] of 17.5 mg/kg.

On D(2) dopamine receptor [1], `C1=C(c2ccccc2)CCN(CC2CCCC=C2c2ccccc2)C1` (configuration not stated) returned an IC50 of 3940 nM. Further, the ED50 in the assay listed under Mus musculus [6] is more than 30 mg/kg.

On to `Clc1ccc(C2=CCC[C@@H](CN3CC=C(c4ccccc4)CC3)C2)cc1`, for which the ED50 in the assay filed under Rattus norvegicus [7] amounted to 19.9 mg/kg.

As to `C1=C(c2ccccc2)CCN(CC2CCC=C(c3ccccc3)C2)C1` (configuration not stated), the median effective dose (ED50) with Mus musculus [8] stood at 1.1 mg/kg. The compound further had an IC50 at D(2) dopamine receptor [1] of 112 nM. Also, in the assay with Rattus norvegicus [2], the Effect is recorded as -86%.

Turning to `C1=C(c2ccccc2)CC(CN2CCN(c3ccccn3)CC2)CC1` (configuration not stated), on D(2) dopamine receptor [1], the IC50 came out at 141 nM. Besides, the Effect with Rattus norvegicus [2] is -61%. For the same compound, in the assay on Mus musculus [9], it took a dose of 0.8 mg/kg to reach the 50% effect level (ED50).

Take `C1=C(c2ccccc2)CCN(C[C@H]2CCC=C(c3ccccc3)C2)C1`: the ED50 in the assay with Rattus norvegicus [10] was 3.8 mg/kg. On D(2) dopamine receptor [1], the IC50 amounted to 113 nM. The Effect in the assay on Rattus norvegicus [2] is listed as 50%.

In the case of `CN1CCc2cccc3c2[C@H]1Cc1ccc(O)c(O)c1-3` [APOMORPHINE], the Activity with Rattus norvegicus [11] is reported as 100%. The ED50 worked out at 0.03 mg/kg in the assay listed under Rattus norvegicus [12], 0.28 mg/kg with Rattus norvegicus [14] and 0.36 mg/kg with Mus musculus [15]. Moreover, the ED50 result in assay [13] is “inactive”.

In the case of `C1=C(c2ccccc2)CC(CN2CCN(c3ncccn3)CC2)CC1` (configuration not stated), the IC50 on D(2) dopamine receptor [1] stood at 354 nM.

As for `Cc1ccc(C2=CCC[C@@H](CN3CC=C(c4ccccc4)CC3)C2)cc1`, the ED50 with Rattus norvegicus [16] worked out at 5.8 mg/kg. On D(2) dopamine receptor [1], the IC50 was found to be 328 nM. In addition, the Effect with Rattus norvegicus [2] was -42%.

On to `C1=C(c2ccccc2)CCN(C2CCC=C(c3ccccc3)C2)C1` (configuration not stated), for which the IC50 at D(2) dopamine receptor [1] was 9210 nM. In the assay filed under Mus musculus [6], this compound came in with an ED50 of approximately 30 mg/kg.

As to `O=C(CCCN1CCC(O)(c2ccc(Cl)cc2)CC1)c1ccc(F)cc1` [HALOPERIDOL], the ED50 was found to be 0.25 mg/kg in the assay with Rattus norvegicus [17], 0.3 mg/kg in the assay filed under Mus musculus [18] and 0.5 mg/kg in [19].

In turn, `C1=C(c2ccccc2)CC(CN2CCN(c3ccccc3)CC2)CC1` (configuration not stated) gave an IC50 at D(2) dopamine receptor [1] of 424 nM. The Effect in the assay with Rattus norvegicus [2] is -7.5%.

For the compound `C1=C(c2ccccc2)CCN(C[C@@H]2CCC=C(c3ccccc3)C2)C1` [CI-1007], the inhibition constant (Ki) is 53 nM at D(2) dopamine receptor [20]; more than 10000 nM at D(1A) dopamine receptor; 90.9 nM at D(4) dopamine receptor; 16.6 nM on D(3) dopamine receptor; 3.3 nM on D(2) dopamine receptor [24]; 25.5 nM at D(2) dopamine receptor [28]. Besides, the Activity in the assay with Rattus norvegicus [21] came out at 99. Also, the figures for the Effect in the assay with Rattus norvegicus [22], with Rattus norvegicus [26] and in the assay on Rattus norvegicus [2] were 0.3%, 3% and -66%, respectively. The ED50 stood at 2.9 mg/kg with Rattus norvegicus [23], 1.3 mg/kg with Mus musculus [25], 0.6 mg/kg in assay [27] and 2.9 mg/kg with Rattus norvegicus [29]. The compound also displayed an IC50 at D(2) dopamine receptor [1] of 53 nM.

With `C1=C(c2ccccc2)CCCC1CN1CC=C(c2ccccc2)CC1` (configuration not stated), the IC50 at D(2) dopamine receptor [1] was found to be 420 nM. The Effect in the assay on Rattus norvegicus [2] is on record as -34%.
